Test results reported in US6534277B1, “Method for identifying a compound to be tested for an ability to reduce immune rejection by determining Stat4 and Stat6 proteins” (Millennium Pharmaceuticals, Inc., priority 2000, dated 2003).
Entries after “also recorded” stand apart in the source; their conditions may differ.

How the values were obtained:
[1] = test system: BALB/c cardiac allograft in B6/129 wild-type mice; assay: Heterotopic cardiac allograft survival, BALB/c donors into B6/129 wild-type recipients; format: in vivo, mouse; details: with CD154 mAb/DST, rapamycin 0.2 mg/kg/d i.p., cyclosporin A 10 mg/kg/d i.p., methylprednisolone 1 mg/kg i.p., PS-519 1 mg/kg/d i.p., p<0.001
Description: Heterotopic cardiac allografting was performed with anastomoses to the abdominal aorta and vena cava (Hancock et al., 1998, Nature Medicine 4:1392-1396), using BALB/c donors and B6/129 wild-type or […] mice as recipients. Recipients were treated with hamster IgG or hamster anti-mouse (CD40L mAb; 250 μg, administered intravenously) plus DST (5×10^6 splenic mononuclear cells) at the time of transplantation (Hancock et al., 1998, Nature Medicine 4:1392-1396).
Heterotopic cardiac allografting was performed with anastomoses to the abdominal aorta and vena cava (Hancock, W. W. et al., 1998, Nature Medicine 4:1392-1396), using BALB/c donors and B6/129 wild-type or NF-κB/p50 KO mice as recipients (n=6/group). Recipients were treated with hamster IgG or hamster anti-mouse CD154 mAb (250 μg, i.v.) plus DST (“donor specific transfusion”; 5×10^6 splenic mononuclear cells) at the time of transplantation (Hancock, W. W. et al., 1998, Nature Medicine 4:1392-1396). […] Graft survival was monitored by daily palpation, and rejection was confirmed by laparotomy and histologic evaluation.
Heterotopic cardiac allografting was performed with anastomoses to the abdominal aorta and vena cava, using BALB/c donors and B6/129 wild-type or Stat-6 KO mice as recipients (n=6/group). […] Graft survival was monitored by daily palpation and rejection was confirmed by laparotomy and histologic evaluation.

[2] = test system: CD154 expression by CD3 mAb-activated CD4+ splenic T cells; assay: Activation-induced CD154 expression by CD4+ T cells, dual color flow cytometry; format: cell-based, mouse; details: 7 hr, plate-bound CD3 mAb; for suppression (inhibition) of activation-induced CD154 expression: 125 ng/ml cyclosporin A, 20 ng/ml rapamycin, 100 μg/ml methylprednisolone, 1 μM mycophenolate mofetil, three experiments; for effect on activation-induced CD154 expression, in words: drug concentrations as b343 (10 μM lactacystin, 10 μM MG-273)
Description: Six-well plates (Costar) were pre-coated overnight with 1 μg/ml of […] anti-mouse CD3 mAb (2C11). After washing with media (RPMI supplemented with 10% fetal bovine serum, 50 U/ml penicillin, 50 μg/ml streptomycin, 2 mM glutamine and 50 μM 2-mercaptoethanol) one ml of media containing 2× final drug concentration was added to each well. After testing of a range of concentrations of each agent, the optimal final physiologic drug concentrations for the data to be reported were 125 ng/ml cyclosporin A, 20 ng/ml rapamycin. 100 μg/ml methylprednisolone, 1 μM mycophenolate mofetil, 10 μm lactacystin and 10 μM MG-273. Cells were obtained from mechanically disrupted spleens and, after collection by centrifugation and washing once with media, one ml aliquots containing two million viable splenocytes were added to each well. Cultures were incubated at 37° C. in 5% CO2 for 7 hr. and were then diluted two-fold with chilled media containing 0.1% sodium azide (FACS media). Cells were collected by centrifugation at 4° C., resuspended in FACS media containing 1 μg Fc Block (PharMingen) and incubated on ice for 15 min. Samples were then split and either a mixture of 1 μg each of FITC-conjugated CD4-specific mAb and PE-conjugated control hamster IgG mAb or FITC-conjugated CD4-specific mAb and PE-conjugated CD154-specific mAb were added. After a 30 min incubation on ice, cells were washed twice and analyzed on a Becton Dickinson FACScan using Cell Quest software. Viable CD4+ lymphocytes were gated using a combination of forward/side scatter and CD4 staining.

Structure (SMILES)	effect of concomitant agent on the effects (efficacy) of CD154 mAb therapy on allograft survival ([1]; listed as lactacystin-derived (LC) proteasome inhibitor)	effect of concomitant agent on the effects (efficacy) of CD154 mAb therapy on allograft survival ([1]; listed as proteasome inhibitor)	suppression (inhibition) of activation-induced CD154 expression [2] [%]	effect on activation-induced CD154 expression, in words [2]
CCC[C@H]1C(=O)N[C@@]2([C@@H](O)C(C)C)C(=O)O[C@@H]12 [PS-519]	significantly impaired	blocked	–	–
C[C@H]1C[C@@H]2[C@H]([C@@H](O)C[C@@]3(C)[C@H]2CC[C@]3(O)C(=O)CO)[C@@]2(C)C=CC(=O)C=C12 [methylprednisolone, 6α-methylprednisolone]	–	–	> 90	–
CO[C@H]1C[C@@H]2CC[C@@H](C)[C@@](O)(O2)C(=O)C(=O)N2CCCC[C@H]2C(=O)O[C@H]([C@H](C)C[C@@H]2CC[C@@H](O)[C@H](OC)C2)CC(=O)[C@H](C)/C=C(\C)[C@@H](O)[C@@H](OC)C(=O)[C@H](C)C[C@H](C)/C=C/C=C/C=C/1C [rapamycin]	–	–	< 20	–
CC(C)C[C@H](NC(=O)[C@H](Cc1cccc2ccccc12)NC(=O)N1CCOCC1)B(O)O [MG-273]	–	–	–	significantly decreased; also recorded: significantly blocked
COc1c(C)c2c(c(O)c1C/C=C(\C)CCC(=O)OCCN1CCOCC1)C(=O)OC2 [mycophenolate mofetil]	–	–	< 10	complete lack of effect
